From PMC12566046, “Arylpiperazinyl-Benzocycloheptapyrrole-Carboxamides Endowed with Dual Anticancer and Antiviral Activities” (Molecules, 2025)
pEC50: −log10 of the molar value.

Columns and labels:
[1] = system: IAV strain A/PR/8/34 (H1N1); assay: microbe, parasite or virus in culture; conditions: Influenza A virus, MDCK, read-out: IAV/MDCK EC50
[2] = system: BT-549 (breast cancer cell line); assay: NCI-60 single-dose assay; assay type: cell-based, human; conditions: Homo sapiens, BT-549, read-out: growth inhibition (GI%) and cytotoxicity (negative values)
How it was run: (§1)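 Human cancer lines from nine tumour types in the NCI-60 panel were exposed to one compound dose, and cytotoxic activity was recorded for each line.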

[3] = system: NCI-H226 (non-small cell lung cancer cell line); assay: NCI-60 single-dose assay; assay type: cell-based, human; conditions: Homo sapiens, NCI-H226, read-out: growth inhibition (GI%) and cytotoxicity (negative values)
How it was run: as §1

[4] = system: MOLT-4 (leukemia cell line); assay: NCI-60 single-dose assay; assay type: cell-based, human; conditions: Homo sapiens, MOLT-4, read-out: growth inhibition (GI%) and cytotoxicity (negative values)
How it was run: as §1

[5] = system: T-47D (breast cancer cell line); assay: NCI-60 single-dose assay; assay type: cell-based, human; conditions: Homo sapiens, T47D, read-out: growth inhibition (GI%) and cytotoxicity (negative values)
How it was run: as §1

[6] = system: EKVX (non-small cell lung cancer cell line); assay: NCI-60 single-dose assay; assay type: cell-based, human; conditions: Homo sapiens, read-out: growth inhibition (GI%) and cytotoxicity (negative values)
How it was run: as §1

[7] = system: HCT-116 (colon cancer cell line); assay: NCI-60 single-dose assay; assay type: cell-based, human
How it was run: as §1

[8] = system: CAKI-1 (renal cancer cell line); assay: NCI-60 single-dose assay; assay type: cell-based, human
How it was run: as §1

[9] = system: HCT-15 (colon cancer cell line); assay: NCI-60 single-dose assay; assay type: cell-based, human
How it was run: as §1

[10] = system: UO-31 (renal cancer cell line); assay: NCI-60 single-dose assay; assay type: cell-based, human; conditions: Homo sapiens, UO-31, read-out: growth inhibition (GI%) and cytotoxicity (negative values)
How it was run: as §1

[11] = system: SK-MEL-28 (melanoma cell line); assay: NCI-60 single-dose assay; assay type: cell-based, human
How it was run: as §1

[12] = system: HL-60(TB) (leukemia cell line); assay: NCI-60 single-dose assay; assay type: cell-based, human; conditions: human
[13] = system: SN12C (renal cancer cell line); assay: NCI-60 single-dose assay; assay type: cell-based, human; conditions: Homo sapiens, read-out: growth inhibition (GI%) and cytotoxicity (negative values)
How it was run: as §1

[14] = system: NCI-H522 (non-small cell lung cancer cell line); assay: NCI-60 single-dose assay; assay type: cell-based, human; conditions: Homo sapiens, NCI-H522, read-out: growth inhibition (GI%) and cytotoxicity (negative values)
How it was run: as §1

[15] = system: MDA-MB-231/ATCC (breast cancer cell line); assay: NCI-60 single-dose assay; assay type: cell-based, human; conditions: Homo sapiens, MDA-MB-231, read-out: growth inhibition (GI%) and cytotoxicity (negative values)
How it was run: as §1

[16] = system: RXF 393 (renal cancer cell line); assay: NCI-60 single-dose assay; assay type: cell-based, human; conditions: Homo sapiens, RXF 393, read-out: growth inhibition (GI%) and cytotoxicity (negative values)
How it was run: as §1

[17] = system: HCC-2998 (colon cancer cell line); assay: NCI-60 single-dose assay; assay type: cell-based, human; conditions: human
How it was run: as §1

[18] = system: UACC-257 (melanoma cell line); assay: NCI-60 single-dose assay; assay type: cell-based, human
How it was run: as §1

[19] = system: RPMI-8226 (leukemia cell line); assay: NCI-60 single-dose assay; assay type: cell-based, human; conditions: Homo sapiens, RPMI-8226, read-out: growth inhibition (GI%) and cytotoxicity (negative values)
How it was run: as §1

[20] = system: UACC-62 (melanoma cell line); assay: NCI-60 single-dose assay; assay type: cell-based, human
How it was run: as §1

[21] = system: KM12 (colon cancer cell line); assay: NCI-60 single-dose assay; assay type: cell-based, human; conditions: Homo sapiens, KM12, read-out: growth inhibition (GI%) and cytotoxicity (negative values)
How it was run: as §1

[22] = system: NCI-H460 (non-small cell lung cancer cell line); assay: NCI-60 single-dose assay; assay type: cell-based, human
How it was run: as §1

[23] = system: MCF-7 (breast cancer cell line); assay: NCI-60 single-dose assay; assay type: cell-based, human; conditions: Homo sapiens, MCF7, read-out: growth inhibition (GI%) and cytotoxicity (negative values), MCF-7, 10^−5 M
How it was run: as §1

[24] = system: SW-620 (colon cancer cell line); assay: NCI-60 single-dose assay; assay type: cell-based, human
How it was run: as §1

[25] = system: MDA-MB-435 (melanoma cell line); assay: NCI-60 single-dose assay; assay type: cell-based, human
How it was run: as §1

[26] = system: MALME-3M (melanoma cell line); assay: NCI-60 single-dose assay; assay type: cell-based, human
How it was run: as §1

[27] = system: 786-0 (renal cancer cell line); assay: NCI-60 single-dose assay; assay type: cell-based, human
How it was run: as §1

[28] = system: CCRF-CEM (leukemia cell line); assay: NCI-60 single-dose assay; assay type: cell-based, human; conditions: Homo sapiens, read-out: growth inhibition (GI%) and cytotoxicity (negative values)
How it was run: as §1

[29] = system: MDA-MB-468 (breast cancer cell line); assay: NCI-60 single-dose assay; assay type: cell-based, human; conditions: human
How it was run: as §1

[30] = system: HT29 (colon cancer cell line); assay: NCI-60 single-dose assay; assay type: cell-based, human
How it was run: as §1

[31] = system: M14 (melanoma cell line); assay: NCI-60 single-dose assay; assay type: cell-based, human; conditions: human
How it was run: as §1

[32] = system: NCI-H23 (non-small cell lung cancer cell line); assay: NCI-60 single-dose assay; assay type: cell-based, human; conditions: Homo sapiens, NCI-H23, read-out: growth inhibition (GI%) and cytotoxicity (negative values)
How it was run: as §1

[33] = system: SK-MEL-2 (melanoma cell line); assay: NCI-60 single-dose assay; assay type: cell-based, human; conditions: Homo sapiens, SK-MEL-2, read-out: growth inhibition (GI%) and cytotoxicity (negative values)
How it was run: as §1

[34] = system: COLO 205 (colon cancer cell line); assay: NCI-60 single-dose assay; assay type: cell-based, human; conditions: human
How it was run: as §1

[35] = system: LOX IMVI (melanoma cell line); assay: NCI-60 single-dose assay; assay type: cell-based, human
How it was run: as §1

[36] = system: SR (leukemia cell line); assay: NCI-60 single-dose assay; assay type: cell-based, human
How it was run: as §1

Compound | pEC50 [1] | inhibition at 10 µM [2] | inhibition at 10 µM [3] | inhibition at 10 µM [4] | inhibition at 10 µM [5] | inhibition at 10 µM [6] | inhibition at 10 µM [10] | growth inhibition (GI%) and cytotoxicity (negative values) [12] | inhibition at 10 µM [13] | inhibition at 10 µM [14] | inhibition at 10 µM [15] | inhibition at 10 µM [16] | growth inhibition (GI%) and cytotoxicity (negative values) [17] | inhibition at 10 µM [19] | inhibition at 10 µM [21] | inhibition at 10 µM [23] | inhibition at 10 µM [28] | growth inhibition (GI%) and cytotoxicity (negative values) [29] | growth inhibition (GI%) and cytotoxicity (negative values) [31] | inhibition at 10 µM [32] | other results
CCOc1ccccc1N1CCN(CCNC(=O)c2c(Cl)[nH]c3c2CCCc2ccccc2-3)CC1 [Compound 17] | 4.46 | 80.7% | 60.4% | 95.5% | 77.6% | 87.5% | 69.3% | −8.21% | 60.7% | 65.7% | < 60% | 62.1% | −35.63% | < 60% | < 60% | 82.2% | 61.6% | −3.78% | −7.74% | < 60% | inhibition at 10 µM ([7]; Homo sapiens, HCT-116, read-out: growth inhibition (GI%) and cytotoxicity (negative values)): 88.9%; inhibition at 10 µM ([8]; Homo sapiens, CAKI-1, read-out: growth inhibition (GI%) and cytotoxicity (negative values)): 71.6%; inhibition at 10 µM ([9]; Homo sapiens, HCT-15, read-out: growth inhibition (GI%) and cytotoxicity (negative values)): 81%; inhibition at 10 µM ([11]; Homo sapiens, SK-MEL-28, read-out: growth inhibition (GI%) and cytotoxicity (negative values)): 71.5%; inhibition at 10 µM ([18]; Homo sapiens, UACC-257, read-out: growth inhibition (GI%) and cytotoxicity (negative values)): 72%; inhibition at 10 µM ([20]; Homo sapiens, UACC-62, read-out: growth inhibition (GI%) and cytotoxicity (negative values)): < 60%; inhibition at 10 µM ([22]; Homo sapiens, NCI-H460, read-out: growth inhibition (GI%) and cytotoxicity (negative values)): 70%; inhibition at 10 µM ([24]; Homo sapiens, SW-620, read-out: growth inhibition (GI%) and cytotoxicity (negative values)): < 60%; inhibition at 10 µM ([25]; Homo sapiens, MDA-MB-435, read-out: growth inhibition (GI%) and cytotoxicity (negative values)): 69.3%; inhibition at 10 µM ([26]; Homo sapiens, Malme-3M, read-out: growth inhibition (GI%) and cytotoxicity (negative values)): 90.3%; inhibition at 10 µM ([27]; Homo sapiens, 786-0, read-out: growth inhibition (GI%) and cytotoxicity (negative values)): < 60%; inhibition at 10 µM ([30]; Homo sapiens, HT-29, read-out: growth inhibition (GI%) and cytotoxicity (negative values)): 81.5%; inhibition at 10 µM [33]: < 60%; growth inhibition (GI%) and cytotoxicity (negative values) [34]: −47.24%; inhibition at 10 µM ([35]; Homo sapiens, LOX IMVI, read-out: growth inhibition (GI%) and cytotoxicity (negative values)): 74.3%; growth inhibition (GI%) and cytotoxicity (negative values) ([36]; human): −5.19%
CCN1CCC[C@H]1CNC(=O)c1[nH]c2c(c1Cl)CCCc1ccccc1-2 [Compound 1, (S)-3-Chloro-N-(1-ethyl-2-pyrrolidinylmethyl)-5,6-dihydro-4H-benzo[6,7]cyclohepta[1,2-b]pyrrol-2-carboxamide] | 4.75 | 62.9% | < 60% | 96.2% | 66.2% | 68.8% | 83% | −38.55% | < 60% | 73.5% | 89% | 79.7% | −21.01% | 98.6% | 83.8% | 87.2% | 75.5% | −3.75% | −68.50% | < 60% | growth inhibition (GI%) and cytotoxicity (negative values) ([7]; human): −25.27%; growth inhibition (GI%) and cytotoxicity (negative values) ([8]; human): −27.03%; growth inhibition (GI%) and cytotoxicity (negative values) ([9]; human): −52.66%; growth inhibition (GI%) and cytotoxicity (negative values) ([11]; human): −85.77%; growth inhibition (GI%) and cytotoxicity (negative values) ([18]; human): −55.18%; growth inhibition (GI%) and cytotoxicity (negative values) ([20]; human): −73.43%; growth inhibition (GI%) and cytotoxicity (negative values) ([22]; human): −54.58%; growth inhibition (GI%) and cytotoxicity (negative values) ([24]; human): −30.78%; growth inhibition (GI%) and cytotoxicity (negative values) ([25]; human): −78.15%; growth inhibition (GI%) and cytotoxicity (negative values) ([26]; human): −90.67%; growth inhibition (GI%) and cytotoxicity (negative values) ([27]; human): −22.61%; growth inhibition (GI%) and cytotoxicity (negative values) ([30]; human): −32.25%; inhibition at 10 µM [33]: 85.8%; growth inhibition (GI%) and cytotoxicity (negative values) [34]: −52.22%; growth inhibition (GI%) and cytotoxicity (negative values) ([35]; human): −25.00%; inhibition at 10 µM ([36]; Homo sapiens, read-out: growth inhibition (GI%) and cytotoxicity (negative values)): 96.3%
